Test results: ChEMBL document CHEMBL1201862, “PubChem BioAssay data set” (2004)
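Following 48 hours of exposure in 96-well plates, responses at five concentrations were used to interpolate endpoints linearly. Here, GI50 denotes the concentration required for 50% inhibition of growth.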 Activity calls are given as the source filed them. Rule as the data show it: active = GI50 up to about 1.1 µM and inactive = higher.

Key:
Assay in all cases: DTP human tumour cell line panel, 48 h
[1] = test system: LOX IMVI
[2] = test system: SK-MEL-28
[3] = test system: HL-60
[4] = test system: A498
[5] = test system: Hs-578T
[6] = test system: SK-MEL-2
[7] = test system: SF-295
[8] = test system: SNB-19
[9] = test system: NCI-H460
[10] = test system: MOLT-4
[11] = test system: PC-3
[12] = test system: MCF7
[13] = test system: DU-145
[14] = test system: T47D
[15] = test system: SNB-75
[16] = test system: UACC-62
[17] = test system: M14
[18] = test system: HCC 2998
[19] = test system: SF-539
[20] = test system: RPMI-8226

| Compound | GI50 [1] | GI50 [2] | GI50 [3] | GI50 [4] | GI50 [5] | GI50 [6] | GI50 [7] | GI50 [8] | GI50 [9] | GI50 [10] | GI50 [11] | GI50 [12] | GI50 [13] | GI50 [14] | GI50 [15] | GI50 [16] | GI50 [17] | GI50 [18] | GI50 [19] | GI50 [20] |
| --- | --- | --- | --- | --- | --- | --- | --- | --- | --- | --- | --- | --- | --- | --- | --- | --- | --- | --- | --- | --- |
| COC(=O)[C@H](Cc1c[nH]c2ccccc12)NC(=O)c1ccccc1I | 19.7 µM (inactive) | 89.3 µM (inactive) | 24.9 µM (inactive) | 18.5 µM (inactive) | 9.84 µM (inactive) | 19.9 µM (inactive) | 42.4 µM (inactive) | > 100 µM (inactive) | 24.8 µM (inactive) | 17.5 µM (inactive) | 24.6 µM (inactive) | 37.8 µM (inactive) | 21.8 µM (inactive) | 22.6 µM (inactive) | 11.8 µM (inactive) | 18.2 µM (inactive) | 15.7 µM (inactive) | 26.4 µM (inactive) |  |  |
| CC(C)=CCc1c(O)c(CC=C(C)C)c2oc3c(c(=O)c2c1O)C(C=C(C)C)Oc1cc(O)ccc1-3 (stereo unspecified) | 5.15 µM (inactive) | 7.53 µM (inactive) | 5.85 µM (inactive) | 16.2 µM (inactive) | 12 µM (inactive) | 2.92 µM (inactive) | 5.97 µM (inactive) | 10.5 µM (inactive) | 4.49 µM (inactive) | 3.84 µM (inactive) | 5.41 µM (inactive) | 4.98 µM (inactive) | 10.4 µM (inactive) | 3.5 µM (inactive) | 4.07 µM (inactive) | 6.37 µM (inactive) | 7.69 µM (inactive) |  | 11.7 µM (inactive) | 3.76 µM (inactive) |
| COC(=O)C1=C(C)NC2(C)OC(C)(O)C(C(C)=O)C12C(C)=O (stereo unspecified) | 89.5 µM (inactive) | 38.5 µM (inactive) | > 100 µM (inactive) | 60.5 µM (inactive) | 25.4 µM (inactive) | 21.4 µM (inactive) | 32.1 µM (inactive) | > 100 µM (inactive) | > 100 µM (inactive) | > 100 µM (inactive) | 13.9 µM (inactive) | > 100 µM (inactive) | > 100 µM (inactive) | > 100 µM (inactive) | 71.8 µM (inactive) | > 100 µM (inactive) | 60.5 µM (inactive) |  | 24.3 µM (inactive) | 61.1 µM (inactive) |
| O=C1CNC(=O)/C(=C/c2c[nH]c3ccccc23)N1 | > 100 µM (inactive) | > 100 µM (inactive) | 36.3 µM (inactive) | > 100 µM (inactive) | > 100 µM (inactive) | > 100 µM (inactive) | > 100 µM (inactive) | > 100 µM (inactive) | > 100 µM (inactive) | > 100 µM (inactive) | > 100 µM (inactive) | > 100 µM (inactive) | > 100 µM (inactive) | > 100 µM (inactive) |  | > 100 µM (inactive) | > 100 µM (inactive) | > 100 µM (inactive) |  | > 100 µM (inactive) |
| CCN(CC)CCCNc1ccc([N+](=O)[O-])c2nc3ccccc3c(N)c12 | 0.482 µM (active) | 3.98 µM (inactive) | 0.514 µM (active) | 2.32 µM (inactive) | 0.257 µM (active) | 1.14 µM (inactive) | 0.581 µM (active) | 0.929 µM (active) | 0.379 µM (active) | 0.302 µM (active) | 0.804 µM (active) | 0.402 µM (active) | 1.05 µM (active) | 0.867 µM (active) | 1.19 µM (inactive) | 2.75 µM (inactive) | 1.08 µM (active) |  | 0.495 µM (active) | 0.555 µM (active) |
| C=CCN1CCN([C@H](c2ccc(C(=O)N(CC)CC)cc2)c2cccc(OC)c2)CC1 |  | > 25 µM (inactive) | > 25 µM (inactive) | > 25 µM (inactive) | > 25 µM (inactive) | > 25 µM (inactive) | > 25 µM (inactive) | > 25 µM (inactive) |  | > 25 µM (inactive) | > 25 µM (inactive) | > 25 µM (inactive) | > 25 µM (inactive) | > 25 µM (inactive) |  | > 25 µM (inactive) | > 25 µM (inactive) |  | > 25 µM (inactive) | > 25 µM (inactive) |
| Oc1cc(Br)cc2cc(Br)cnc12 | 0.661 µM (active) | 2.02 µM (inactive) | 0.22 µM (active) | 3.4 µM (inactive) | 3.24 µM (inactive) |  | 2.64 µM (inactive) | 3.33 µM (inactive) | 1.3 µM (inactive) | 2.55 µM (inactive) | 3.71 µM (inactive) | 5.35 µM (inactive) | 3.68 µM (inactive) | 2.8 µM (inactive) | 3.47 µM (inactive) | 2.05 µM (inactive) | 2.4 µM (inactive) | 17.1 µM (inactive) | 3.78 µM (inactive) | 2.63 µM (inactive) |
| C/C(=N\NC(N)=S)c1cccs1.OB(O)c1ccccc1 | > 100 µM (inactive) | > 100 µM (inactive) | > 100 µM (inactive) | > 100 µM (inactive) | > 100 µM (inactive) |  | > 100 µM (inactive) | > 100 µM (inactive) | > 100 µM (inactive) | > 100 µM (inactive) | > 100 µM (inactive) | > 100 µM (inactive) | > 100 µM (inactive) | 75 µM (inactive) | > 100 µM (inactive) | > 100 µM (inactive) | > 100 µM (inactive) | > 100 µM (inactive) | > 100 µM (inactive) | > 100 µM (inactive) |
| CC(=O)O[C@H]1[C@@H](OC2CCCC2(c2ccccc2)c2ccccc2)O[N+]([O-])=C[C@@]12COCc1cc3c(cc12)OCO3 (stereo partly specified) | 2.72 µM (inactive) | 6.78 µM (inactive) | 3.24 µM (inactive) | 1.99 µM (inactive) | 2.65 µM (inactive) | 4.17 µM (inactive) | 5.25 µM (inactive) | 15.1 µM (inactive) | 7.06 µM (inactive) | 2.52 µM (inactive) | 4.2 µM (inactive) | 6.38 µM (inactive) | 6.32 µM (inactive) | 4.23 µM (inactive) | 4.11 µM (inactive) | 8.39 µM (inactive) | 11.2 µM (inactive) | 3.25 µM (inactive) | 93.3 µM (inactive) |  |
| C[N+]12C=CC=C1C(N1CCCC1)c1scc(-c3ccccc3)c12 (stereo unspecified) | 37.4 µM (inactive) | 37.2 µM (inactive) |  | 38.5 µM (inactive) | 9.84 µM (inactive) | 6.78 µM (inactive) | 44.3 µM (inactive) | 10.6 µM (inactive) |  | 19.3 µM (inactive) | 17.1 µM (inactive) | 14.8 µM (inactive) | 52.2 µM (inactive) | 4.25 µM (inactive) | 3.99 µM (inactive) | 21 µM (inactive) | 50.2 µM (inactive) |  |  | 5.92 µM (inactive) |
| CN1[C@@H]2CCCC[C@H]2N(C)P1(=O)C(O)/C=C/c1ccccc1 (stereo partly specified) | > 100 µM (inactive) | > 100 µM (inactive) | > 100 µM (inactive) | > 100 µM (inactive) | > 100 µM (inactive) | > 100 µM (inactive) | > 100 µM (inactive) | > 100 µM (inactive) | > 100 µM (inactive) | > 100 µM (inactive) | > 100 µM (inactive) | > 100 µM (inactive) | > 100 µM (inactive) | > 100 µM (inactive) | > 100 µM (inactive) | > 100 µM (inactive) | > 100 µM (inactive) | > 100 µM (inactive) |  | > 100 µM (inactive) |
| O=C(c1ccccc1)N1CCC(Nc2nccs2)O1 (stereo unspecified) | > 10 µM (inactive) | > 10 µM (inactive) | > 10 µM (inactive) |  | > 10 µM (inactive) | > 10 µM (inactive) | > 10 µM (inactive) | > 10 µM (inactive) | > 10 µM (inactive) | > 10 µM (inactive) | > 10 µM (inactive) | > 10 µM (inactive) | > 10 µM (inactive) | > 10 µM (inactive) | > 10 µM (inactive) |  | > 10 µM (inactive) | > 10 µM (inactive) | > 10 µM (inactive) | > 10 µM (inactive) |
| CC(=O)OCC(OC(C)=O)C(OC(C)=O)C(OC(C)=O)C(/C=N\Nc1nc2ccccc2c(=O)[nH]1)=N/Nc1nc2ccccc2c(=O)[nH]1 (stereo unspecified) | > 100 µM (inactive) | > 100 µM (inactive) | > 100 µM (inactive) |  | > 100 µM (inactive) | > 100 µM (inactive) | > 100 µM (inactive) | > 100 µM (inactive) | > 100 µM (inactive) | > 100 µM (inactive) | > 100 µM (inactive) | > 100 µM (inactive) | > 100 µM (inactive) | > 100 µM (inactive) | > 100 µM (inactive) | > 100 µM (inactive) | > 100 µM (inactive) | 85.5 µM (inactive) | 18.2 µM (inactive) | > 100 µM (inactive) |
| CC(=O)/C(C)=N/NC(=O)c1ccccc1O | > 10 µM (inactive) | > 10 µM (inactive) |  | 47.9 µM (inactive) | > 100 µM (inactive) | > 10 µM (inactive) | > 10 µM (inactive) | > 10 µM (inactive) | > 10 µM (inactive) | 31.7 µM (inactive) | > 100 µM (inactive) | > 100 µM (inactive) | > 100 µM (inactive) | > 100 µM (inactive) | > 10 µM (inactive) | 39.7 µM (inactive) | > 10 µM (inactive) | > 10 µM (inactive) | > 10 µM (inactive) | > 10 µM (inactive) |
| N#CC(NC12CC3CC(CC(C3)C1)C2)c1ccccc1 (stereo unspecified) | > 100 µM (inactive) | > 100 µM (inactive) | > 100 µM (inactive) |  | > 100 µM (inactive) | > 100 µM (inactive) | > 100 µM (inactive) | > 100 µM (inactive) | > 100 µM (inactive) | > 100 µM (inactive) | > 100 µM (inactive) | > 100 µM (inactive) | > 100 µM (inactive) | > 100 µM (inactive) | > 100 µM (inactive) | > 100 µM (inactive) | > 100 µM (inactive) | > 100 µM (inactive) | > 100 µM (inactive) | > 100 µM (inactive) |
